Active and inactive are the calls of the source. The calls are words filed in the database; no cut-off is given here.
What was measured:
PBMC = test: Anti-inflammatory activity against human derived medium respond PBMC cells assessed as increase in stimulated IL-12p70 cytokine release at 1 uM incubated for 2 hrs in the presence of LPS/SEB/aCD28 by Luminex based sandwich immunoassay; assay type: functional, cell-based
[1] = target: Serine/threonine-protein kinase Nek6 (Homo sapiens) (UniProt Q9HC98); test: Inhibition of human NEK6 assessed as residual activity at 1 uM using RBER-GSK3 as substrate in presence of 33P-ATP by ProQinase assay relative to control
Chain of Serine/threonine-protein kinase Nek6 (Homo sapiens) (Q9HC98 whole entry): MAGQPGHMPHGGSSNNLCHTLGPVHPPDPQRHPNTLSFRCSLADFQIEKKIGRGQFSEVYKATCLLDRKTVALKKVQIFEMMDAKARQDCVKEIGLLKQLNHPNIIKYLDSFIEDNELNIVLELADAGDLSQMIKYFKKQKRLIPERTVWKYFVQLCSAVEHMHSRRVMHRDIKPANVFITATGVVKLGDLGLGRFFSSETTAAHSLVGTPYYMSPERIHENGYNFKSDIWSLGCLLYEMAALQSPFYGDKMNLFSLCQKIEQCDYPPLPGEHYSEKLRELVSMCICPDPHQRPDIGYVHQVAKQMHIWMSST

[2] = Plasma concentration in Gal/LPS induced mouse at 3 mg/kg, po for 1 hrs; assay type: ADME, organism-based
[3] = test system: Hepatocyte growth factor receptor (Homo sapiens), P08581 [Y1230A]; test: Inhibition of human MET Y1230A mutant assessed as residual activity at 1 uM using poly(Ala,Glu,Lys,Tyr)6:2:5:1 as substrate in presence of 33P-ATP by ProQinase assay relative to control
[4] = target: Mitogen-activated protein kinase kinase kinase 10 (Homo sapiens) (UniProt Q02779); test: Inhibition of human MAP3K10 assessed as residual activity at 1 uM using histon H2B as substrate in presence of 33P-ATP by ProQinase assay relative to control
[5] = target: Serine/threonine-protein kinase Chk2 (Homo sapiens) (UniProt O96017); test: Inhibition of CHEK2 (unknown origin) assessed as remaining activity at 1 uM by Kinome scan method relative to control
Chain of Serine/threonine-protein kinase Chk2 (Homo sapiens) (O96017 whole entry): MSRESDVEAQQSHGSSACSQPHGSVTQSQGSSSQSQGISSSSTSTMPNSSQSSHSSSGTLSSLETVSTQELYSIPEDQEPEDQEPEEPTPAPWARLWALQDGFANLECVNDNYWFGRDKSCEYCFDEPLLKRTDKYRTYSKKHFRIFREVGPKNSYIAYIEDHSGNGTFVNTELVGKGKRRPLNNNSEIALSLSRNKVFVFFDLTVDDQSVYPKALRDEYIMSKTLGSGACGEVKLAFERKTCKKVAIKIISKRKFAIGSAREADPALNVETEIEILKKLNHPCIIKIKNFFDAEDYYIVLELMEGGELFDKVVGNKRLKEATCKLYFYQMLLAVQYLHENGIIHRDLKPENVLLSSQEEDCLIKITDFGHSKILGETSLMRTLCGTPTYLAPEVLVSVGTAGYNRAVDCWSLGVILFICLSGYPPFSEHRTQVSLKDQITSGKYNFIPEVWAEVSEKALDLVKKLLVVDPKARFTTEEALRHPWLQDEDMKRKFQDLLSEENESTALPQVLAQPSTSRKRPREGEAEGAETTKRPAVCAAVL

[6] = target: Ribosomal protein S6 kinase beta-2 (Homo sapiens) (UniProt Q9UBS0); test: Inhibition of human S6K-beta assessed as residual activity at 1 uM using RBER-CHKtide as substrate in presence of 33P-ATP by ProQinase assay relative to control
[7] = target: T1, Myosin light chain kinase (Homo sapiens) (UniProt Q32MK0); test: Inhibition of human MYLK3 assessed as residual activity at 1 uM using RB-S6P as substrate in presence of 33P-ATP by ProQinase assay relative to control
T1 sequence (whole entry): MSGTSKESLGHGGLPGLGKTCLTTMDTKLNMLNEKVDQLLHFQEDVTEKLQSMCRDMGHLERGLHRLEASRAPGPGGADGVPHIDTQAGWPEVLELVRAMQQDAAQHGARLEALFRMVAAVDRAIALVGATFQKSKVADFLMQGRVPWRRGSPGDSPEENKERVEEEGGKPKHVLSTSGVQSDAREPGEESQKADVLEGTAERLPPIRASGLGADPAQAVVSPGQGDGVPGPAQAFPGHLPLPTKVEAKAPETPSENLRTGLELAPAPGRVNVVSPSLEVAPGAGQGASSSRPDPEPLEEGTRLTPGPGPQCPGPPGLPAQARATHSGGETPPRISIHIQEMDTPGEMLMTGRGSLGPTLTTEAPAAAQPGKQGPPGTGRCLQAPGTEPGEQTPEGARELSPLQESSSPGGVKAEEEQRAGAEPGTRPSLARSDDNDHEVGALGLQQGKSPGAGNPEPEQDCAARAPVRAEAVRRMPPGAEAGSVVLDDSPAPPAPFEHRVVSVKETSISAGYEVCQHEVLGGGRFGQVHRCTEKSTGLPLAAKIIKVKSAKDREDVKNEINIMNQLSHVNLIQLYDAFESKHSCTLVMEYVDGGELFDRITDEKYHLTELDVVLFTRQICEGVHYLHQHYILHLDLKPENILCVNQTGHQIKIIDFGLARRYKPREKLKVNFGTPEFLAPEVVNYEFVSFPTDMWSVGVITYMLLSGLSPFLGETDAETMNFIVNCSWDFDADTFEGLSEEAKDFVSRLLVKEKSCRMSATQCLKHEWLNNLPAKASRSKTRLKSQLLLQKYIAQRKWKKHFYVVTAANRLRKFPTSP

[8] = target: Leukocyte tyrosine kinase receptor (Homo sapiens) (UniProt P29376); test: Inhibition of LTK (unknown origin) assessed as remaining activity at 1 uM by Kinome scan method relative to control
Chain of Leukocyte tyrosine kinase receptor (Homo sapiens) (P29376 whole entry): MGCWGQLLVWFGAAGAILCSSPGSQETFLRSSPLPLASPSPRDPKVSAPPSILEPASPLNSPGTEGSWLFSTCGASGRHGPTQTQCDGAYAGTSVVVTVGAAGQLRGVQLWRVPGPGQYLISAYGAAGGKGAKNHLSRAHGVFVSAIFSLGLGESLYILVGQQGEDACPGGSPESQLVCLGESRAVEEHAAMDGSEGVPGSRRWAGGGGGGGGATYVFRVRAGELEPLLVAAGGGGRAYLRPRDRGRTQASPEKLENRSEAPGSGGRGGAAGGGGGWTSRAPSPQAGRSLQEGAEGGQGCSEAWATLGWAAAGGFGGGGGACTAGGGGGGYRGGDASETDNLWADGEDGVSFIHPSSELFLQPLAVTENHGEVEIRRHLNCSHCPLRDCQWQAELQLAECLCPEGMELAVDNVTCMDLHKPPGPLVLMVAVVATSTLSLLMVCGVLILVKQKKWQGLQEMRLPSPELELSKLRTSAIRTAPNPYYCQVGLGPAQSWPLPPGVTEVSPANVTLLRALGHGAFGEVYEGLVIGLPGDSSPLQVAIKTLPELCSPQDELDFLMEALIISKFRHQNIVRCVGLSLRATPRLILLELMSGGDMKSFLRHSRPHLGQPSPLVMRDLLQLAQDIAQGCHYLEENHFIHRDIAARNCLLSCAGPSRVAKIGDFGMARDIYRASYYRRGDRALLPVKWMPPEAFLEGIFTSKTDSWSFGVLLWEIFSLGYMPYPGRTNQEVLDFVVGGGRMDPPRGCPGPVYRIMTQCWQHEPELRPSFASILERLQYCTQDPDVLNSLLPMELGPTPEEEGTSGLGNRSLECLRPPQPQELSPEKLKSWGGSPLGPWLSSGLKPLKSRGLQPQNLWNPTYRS

[9] = target: Tyrosine-protein kinase JAK2 (Homo sapiens) (UniProt O60674); test: Inhibition of human JAK2 assessed as residual activity at 1 uM using poly(Ala,Glu,Lys,Tyr)6:2:5:1 as substrate in presence of 33P-ATP by ProQinase assay relative to control
[10] = target: Inhibitor of nuclear factor kappa-B kinase subunit beta (Homo sapiens) (UniProt O14920); test: Inhibition of IKK-beta (unknown origin) assessed as remaining activity at 1 uM by Kinome scan method relative to control
[11] = target: Serine/threonine-protein kinase 3 (Homo sapiens) (UniProt Q13188); test: Inhibition of human MST2 assessed as residual activity at 1 uM using RB-CTF as substrate in presence of 33P-ATP by ProQinase assay relative to control
Chain of Serine/threonine-protein kinase 3 (Homo sapiens) (Q13188 whole entry): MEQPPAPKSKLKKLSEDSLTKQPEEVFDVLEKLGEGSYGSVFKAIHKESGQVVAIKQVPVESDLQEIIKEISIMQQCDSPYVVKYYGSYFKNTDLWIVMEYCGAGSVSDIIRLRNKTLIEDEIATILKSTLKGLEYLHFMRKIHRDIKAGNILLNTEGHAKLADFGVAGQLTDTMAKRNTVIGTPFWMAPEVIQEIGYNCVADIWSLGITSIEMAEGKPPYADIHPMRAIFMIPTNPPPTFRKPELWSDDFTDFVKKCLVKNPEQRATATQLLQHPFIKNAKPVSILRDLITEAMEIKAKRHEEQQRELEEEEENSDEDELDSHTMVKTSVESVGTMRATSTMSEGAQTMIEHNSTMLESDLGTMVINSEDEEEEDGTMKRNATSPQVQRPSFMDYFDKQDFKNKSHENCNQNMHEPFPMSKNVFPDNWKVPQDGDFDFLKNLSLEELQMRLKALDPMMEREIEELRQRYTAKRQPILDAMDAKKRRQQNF

[12] = target: CDK9/cyclin T1 (Homo sapiens) (UniProt O60563+P50750); test: Inhibition of human CDK9/CyclinT1 assessed as residual activity at 1 uM using RBER-CHKtide as substrate in presence of 33P-ATP by ProQinase assay relative to control; assay type: protein-complex assay
[13] = target: Tyrosine-protein kinase FRK (Homo sapiens) (UniProt P42685); test: Inhibition of human FRK assessed as residual activity at 1 uM using PolyEY as substrate in presence of 33P-ATP by ProQinase assay relative to control
Chain of Tyrosine-protein kinase FRK (Homo sapiens) (P42685 whole entry): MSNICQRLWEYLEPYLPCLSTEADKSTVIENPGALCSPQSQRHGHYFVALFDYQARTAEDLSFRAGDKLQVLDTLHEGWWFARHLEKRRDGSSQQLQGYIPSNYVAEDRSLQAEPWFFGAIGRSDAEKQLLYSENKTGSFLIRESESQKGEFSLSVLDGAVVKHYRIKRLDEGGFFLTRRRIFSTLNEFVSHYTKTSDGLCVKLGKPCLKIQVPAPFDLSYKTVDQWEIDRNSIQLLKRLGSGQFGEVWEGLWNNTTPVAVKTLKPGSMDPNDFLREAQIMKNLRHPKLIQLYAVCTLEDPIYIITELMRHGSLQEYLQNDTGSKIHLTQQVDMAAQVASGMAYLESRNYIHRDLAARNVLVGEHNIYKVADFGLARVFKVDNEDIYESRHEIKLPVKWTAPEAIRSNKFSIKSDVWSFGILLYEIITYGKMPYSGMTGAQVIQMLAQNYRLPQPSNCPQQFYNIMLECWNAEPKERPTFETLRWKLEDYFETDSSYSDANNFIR

[14] = target: Serine/threonine-protein kinase B-raf (Homo sapiens) (UniProt P15056); test: Inhibition of BRAF (unknown origin) assessed as remaining activity at 1 uM by Kinome scan method relative to control
Chain of Serine/threonine-protein kinase B-raf (Homo sapiens) (P15056 whole entry): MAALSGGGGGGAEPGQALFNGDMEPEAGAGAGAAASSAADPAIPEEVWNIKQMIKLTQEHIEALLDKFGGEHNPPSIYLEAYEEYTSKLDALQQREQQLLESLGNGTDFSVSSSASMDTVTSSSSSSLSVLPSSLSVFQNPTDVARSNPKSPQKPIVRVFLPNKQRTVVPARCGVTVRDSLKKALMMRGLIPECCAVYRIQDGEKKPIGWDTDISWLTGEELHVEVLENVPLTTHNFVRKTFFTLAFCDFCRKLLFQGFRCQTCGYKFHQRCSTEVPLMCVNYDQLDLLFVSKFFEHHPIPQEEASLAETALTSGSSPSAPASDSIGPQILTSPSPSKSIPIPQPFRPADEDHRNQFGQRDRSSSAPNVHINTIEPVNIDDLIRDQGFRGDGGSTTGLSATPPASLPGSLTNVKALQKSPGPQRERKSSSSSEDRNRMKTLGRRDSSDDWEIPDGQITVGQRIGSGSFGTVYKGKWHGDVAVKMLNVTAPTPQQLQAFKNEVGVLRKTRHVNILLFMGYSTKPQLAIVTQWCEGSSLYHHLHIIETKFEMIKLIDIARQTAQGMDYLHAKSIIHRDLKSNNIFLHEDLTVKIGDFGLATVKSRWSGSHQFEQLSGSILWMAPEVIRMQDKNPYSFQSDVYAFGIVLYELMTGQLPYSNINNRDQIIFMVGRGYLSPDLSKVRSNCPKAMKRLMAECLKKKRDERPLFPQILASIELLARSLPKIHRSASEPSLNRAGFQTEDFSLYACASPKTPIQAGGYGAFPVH

[15] = target: Serine/threonine-protein kinase pim-3 (Homo sapiens) (UniProt Q86V86); test: Inhibition of PIM3 (unknown origin) assessed as remaining activity at 1 uM by Kinome scan method relative to control
[16] = test system: Phosphatidylinositol 4,5-bisphosphate 3-kinase catalytic subunit alpha isoform (Homo sapiens), P42336 [Q546K]; test: Inhibition of PIK3CA Q546K mutant (unknown origin) assessed as remaining activity at 1 uM by Kinome scan method relative to control
[17] = test system: Leucine-rich repeat serine/threonine-protein kinase 2 (Homo sapiens), Q5S007 [I2020T]; test: Inhibition of human LRRK2 I2020T mutant assessed as residual activity at 1 uM using RBER-CHKtide as substrate in presence of 33P-ATP by ProQinase assay relative to control
[18] = test system: Proto-oncogene tyrosine-protein kinase receptor Ret (Homo sapiens), P07949 [Y791F]; test: Inhibition of human RET Y791F mutant assessed as residual activity at 1 uM using polyEY as substrate in presence of 33P-ATP by ProQinase assay relative to control
Chain of Proto-oncogene tyrosine-protein kinase receptor Ret (Homo sapiens), P07949 [Y791F] (P07949 whole entry Y791F): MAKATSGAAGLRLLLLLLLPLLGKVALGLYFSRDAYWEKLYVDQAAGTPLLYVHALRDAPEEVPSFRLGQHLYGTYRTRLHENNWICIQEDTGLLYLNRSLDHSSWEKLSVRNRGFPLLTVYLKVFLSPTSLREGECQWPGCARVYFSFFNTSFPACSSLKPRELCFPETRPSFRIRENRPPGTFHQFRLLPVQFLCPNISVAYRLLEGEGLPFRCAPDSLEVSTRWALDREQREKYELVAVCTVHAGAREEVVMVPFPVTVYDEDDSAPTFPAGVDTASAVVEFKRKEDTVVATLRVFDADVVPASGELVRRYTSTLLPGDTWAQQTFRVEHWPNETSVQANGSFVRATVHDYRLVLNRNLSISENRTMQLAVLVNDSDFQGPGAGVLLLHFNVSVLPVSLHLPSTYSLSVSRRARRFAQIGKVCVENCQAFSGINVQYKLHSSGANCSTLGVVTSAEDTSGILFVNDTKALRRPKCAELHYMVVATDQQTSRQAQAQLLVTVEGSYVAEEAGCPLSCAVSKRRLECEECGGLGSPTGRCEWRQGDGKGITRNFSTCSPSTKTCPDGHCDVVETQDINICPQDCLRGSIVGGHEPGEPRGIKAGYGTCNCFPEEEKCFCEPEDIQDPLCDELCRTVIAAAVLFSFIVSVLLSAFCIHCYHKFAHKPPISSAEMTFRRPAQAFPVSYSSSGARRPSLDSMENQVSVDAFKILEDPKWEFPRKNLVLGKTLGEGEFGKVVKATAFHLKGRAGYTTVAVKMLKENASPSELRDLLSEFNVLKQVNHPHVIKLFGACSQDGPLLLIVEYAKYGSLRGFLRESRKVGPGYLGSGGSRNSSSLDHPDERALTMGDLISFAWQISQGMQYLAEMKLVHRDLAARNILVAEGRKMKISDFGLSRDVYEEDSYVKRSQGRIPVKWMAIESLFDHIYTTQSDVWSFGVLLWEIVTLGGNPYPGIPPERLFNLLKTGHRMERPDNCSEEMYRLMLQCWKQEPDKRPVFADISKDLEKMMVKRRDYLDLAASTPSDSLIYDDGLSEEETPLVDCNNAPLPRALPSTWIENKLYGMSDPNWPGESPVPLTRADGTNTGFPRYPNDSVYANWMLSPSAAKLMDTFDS

[19] = target: Misshapen-like kinase 1 (Homo sapiens) (UniProt Q8N4C8); test: Inhibition of human MINK1 assessed as residual activity at 1 uM using RBER-CHKtide as substrate in presence of 33P-ATP by ProQinase assay relative to control
[20] = target: Rho-associated protein kinase 2 (Homo sapiens) (UniProt O75116); test: Inhibition of human ROCK2 assessed as residual activity at 1 uM using RB-S6P as substrate in presence of 33P-ATP by ProQinase assay relative to control

## O=C1c2ccc(Nc3ccc(F)cc3F)cc2CCc2ccc(OC[C@H](O)CO)cc21 [Skepinone-L]
PBMC
  Activity: Active
[1]
  Activity: 97%
[2]
  concentration at 1 h: 240 nM
[3]
  Activity: 91%
[4]
  Activity: 101%
[5]
  Activity: 100%
[6]
  Activity: 89%
[7]
  Activity: 85%
[8]
  Activity: 100%
[9]
  Activity: 90%
[10]
  Activity: 100%
[11]
  Activity: 83%
[12]
  Activity: 103%
[13]
  Activity: 111%
[14]
  Activity: 100%
[15]
  Activity: 100%
[16]
  Activity: 100%
[17]
  Activity: 94%
[18]
  Activity: 141%
[19]
  Activity: 94%
[20]
  Activity: 90%

— ChEMBL document CHEMBL5696441 (Nat Chem Biol, 2011)
